We go through one compound from patent publication US20240299394A1, “TARGETED TREATMENT FOR SKIN FRAGILITY DISEASES” (University of Washington, priority 2023, published 2024).

Holding throughout (format): cell-based, human
For assay [1], the system named is HET cells (THEKs). As to the kind of experiment: Immunoblot of KRT10 and KRT14 in keratinocyte lysates. The conditions noted are these: 1 μM Dab, 1 μM Tram, 10 μM U0126, 10 μM PD184352, 20 μM PD98059 (FIG. 10D). On the procedure: THEKs were seeded at a density of 1×10^6 cells per well of 6-well cell culture dishes in KSFM. Upon reaching confluence, KSFM was replaced with E-medium containing vehicle control (DMSO) or inhibitors at the following concentrations: Dabrafenib (1 μM), trametinib (1 μM), U0126 (10 μM), PD184352 (10 μM), or PD98059 (20 μM). After 72 hours, whole-cell lysates were generated by washing cells once in PBS followed by lysis in urea sample buffer [8 M Urea, 60 mM Tris, 1% sodium dodecyl sulfate (SDS), 10% glycerol, 5% β-mercaptoethanol, 0.0005% pyronin-Y, pH 6.8] for 10 min. Lysates were homogenized using a microtip probe sonicator (Fisher Scientific).
Whole-cell lysates were loaded onto Any kD Mini-PROTEAN TGX Precast Protein Gels (Bio-Rad) and separated by electrophoresis. Proteins were transferred onto nitrocellulose membranes (Bio-Rad) in ice-cold Towbin transfer buffer (25 mM Tris, 192 mM glycine, 20% (v/v) methanol) at 100 volts (V) for 90 minutes at 4° C. Membranes were blocked in Intercept tris-buffered saline (TBS) blocking buffer (LI-COR) for 45 min at room temperature. Membranes were probed overnight at 4° C. with the primary antibodies diluted at 1:1000 in Intercept TBS blocking buffer (LI-COR). […]

In assay [2] the test system is NHEK monolayers. As to the kind of experiment: Monolayer mechanical dissociation assay, SERCA2 inhibition with thapsigargin. Conditions: with 1 μM TG, 24 hours; 1 μM Tram, 10 μM U0126, 20 μM PD98059, 1 μM dabrafenib. On the procedure: Dispase-based mechanical dissociation assays were carried out as described (Simpson C L, et al. Am J Pathol. 2010; 177(6): p. 2921-37). Keratinocytes were plated at a density of 1×10^6 cells per well of 6-well cell culture dishes. Upon reaching confluence, the calcium concentration of the medium was adjusted to 1.3 mM. Vehicle control (DMSO) or chemical inhibitors were added at the following concentrations: […] After 24 to 72 hours, monolayers were washed with PBS and then incubated with 500 μL dispase (5 U/ml) in Hank's balanced salt solution (Stemcell Technologies of Vancouver, CA, Cat. #07913) for 30 minutes at 37° C. Next, 4.5 ml PBS was added to the wells and all liquid plus released monolayers were transferred into 15 mL conical tubes, which were placed together in a rack and inverted 5-10 times to induce mechanical stress. Monolayer fragments were transferred back into 6-well cell culture plates and imaged with a 12-megapixel digital camera. Fragments were counted in Fiji.

Assay [3] relates to ERK. In words: Western blotting of pERK in NHEK lysates. The conditions noted are these: Dab 1 μM or Vem 10 μM alone, 24 hours in E-medium, vs DMSO. On the procedure:
(§1) NHEKs were seeded at a density of 1×10^6 cells per well of 6-well cell culture dishes in M154. Upon reaching confluence, M154 was replaced with E-medium containing vehicle control (DMSO) or inhibitors at the following concentrations: Dabrafenib (1 μM), vemurafenib (10 μM), trametinib (1 μM). After 24 hours, whole-cell lysates were generated by washing cells once in phosphate-buffered saline (PBS) followed by lysis in urea sample buffer [8 M Urea, 60 mM Tris, 1% SDS, 10% glycerol, 5% β-mercaptoethanol, 0.0005% pyronin-Y, pH 6.8] for 10 min. Lysates were homogenized using a microtip probe sonicator (Fisher Scientific).
(§2) Whole-cell lysates were loaded onto NuPAGE 12% Bis-Tris Gels (Thermo-Fisher Cat. #NP0343BOX) and separated by electrophoresis using NuPAGE MES SDS Running Buffer (Thermo-Fisher Cat. #NP0002). Proteins were transferred onto Immobilon-FL membrane (Millipore of Burlington, MA, Cat. #IPFL85R) in transfer buffer (25 mM Tris, 192 mM glycine, 20% (v/v) methanol) at 50 volts (V) for 60 minutes. Membranes were blocked in Intercept tris-buffered saline (TBS) blocking buffer (LI-COR) for 60 minutes at room temperature. Membranes were probed overnight at 4° C. with the primary antibodies diluted in Intercept TBS blocking buffer (LI-COR). […]

The subject of assay [4] is NHEKs. In words: Immunoblot of cadherins and plakoglobin in NHEK lysates. Conditions: 24 hours in E-medium, vs DMSO. On the procedure: as §1, §2
(In general: Immunoblotting shows a protein as a band on a membrane.)

In assay [5] the test system is NHEK monolayers. As to the kind of experiment: Monolayer mechanical dissociation assay, B-RAF inhibitor model of Grover disease. The conditions noted are these: Dabrafenib 1 μM or vemurafenib 10 μM alone, 24 h. On the procedure:
Dispase-based mechanical dissociation assays were carried out as described (70). Keratinocytes were plated at a density of 1×10^6 cells per well of 6-well cell culture dishes. Upon reaching confluence, the cells were switched into E-medium. Vehicle control (DMSO) or chemical inhibitors were added at the following concentrations: Dabrafenib (1 μM), vemurafenib (10 μM) trametinib (1 μM), U0126 (10 μM), or PD98059 (20 μM). After 24 h, monolayers were washed with PBS and then incubated with 500 μL dispase (5 U/ml) in Hank's balanced salt solution (Stemcell Technologies of Vancouver, Canada, Cat. #07913) for 30 minutes at 37° C. Next, 4.5 mL PBS was added to the wells and all liquid plus released monolayers were transferred into 15 mL conical tubes, which were placed together in a rack and inverted 1-10 times to induce mechanical stress. Monolayer fragments were transferred back into 6-well cell culture plates and imaged with a 12-megapixel digital camera. Fragments were counted in Fiji.

Assay [6] has as its system organotypic epidermis of NHEKs. As to the kind of experiment: Organotypic epidermis treated with B-RAF inhibitors (H&E, immunostaining). Conditions: Dab or Vem alone, 48 hours. On the procedure: Inhibitors were used at the following concentrations: Dabrafenib (1 μM), vemurafenib (10 μM), trametinib (1 μM).
Paraffin-embedded formalin-fixed tissue cross-sections on glass slides were incubated at 65° C. for 2 hours. Sections were prepared for staining by immersion in 3 baths of xylenes (Fisher) for 5 minutes each, followed by 3 baths of 95% ethanol for 5 minutes each, then 70% ethanol for 5 minutes, and finally 3 baths of PBS for 5 minutes each.

In the case of `CC(C)(C)c1nc(-c2cccc(NS(=O)(=O)c3c(F)cccc3F)c2F)c(-c2ccnc(N)n2)s1` [dabrafenib], the KRT10 by immunoblot entry in assay [1] is recorded as “failed to rescue KRT10 expression”. Besides, the “integrity of epithelial sheets despite SERCA2 inhibition” value in assay [2] was “did not promote intercellular adhesion, but rather exacerbated the effect of TG”. Besides, the “pERK by Western blotting” value in assay [3] is reported as “sufficient to increase the active phosphorylated form of ERK (pERK)”. In addition, the “protein levels of classical cadherins, desmosomal cadherins (DSG1, DSG2, DSG3) and plakoglobin” value in assay [4] is listed as “did not appreciably alter”. Moreover, the results for the “number of fragments upon mechanical stress” value in assay [5] and in assay [5] (listed as Dab) were “an increase in the number of fragments” and “readily fragmented”, respectively. In addition, the “localization of plakoglobin to cell-cell junctions” value in assay [6] is “reduced localization of plakoglobin to cell-cell junctions”.
